# Source: EP0375557A1, “Glycine derivative process for preparation thereof, and pharmaceutical composition containing it” (TANABE SEIYAKU CO., LTD., priority 1988, dated 1990)
# Test system: arachidonic acid-induced pulmonary embolism
# Assay: Inhibiting effect on arachidonic acid-induced pulmonary embolism (in vivo)
# Conditions: Mus musculus, 3 h; oral administration in aqueous CMC to fasted ddY-male mice; arachidonic acid (125 mg/10ml/kg) into tail vein three hours later; dose required to induce at least 15 % decrease in recovery time of locomotive activity vs control; read-out: Minimum effective dose
# Procedure: [Inhibiting effect on arachidonic acid-induced pulmonary embolism (in vivo)]
# An aqueous carboxymethylcellulose (hereinafter referred to as "CMC") solution containing a test compound (20 ml/kg) was orally administered to ddY-male mice (8 mice per group) fasted overnight.
row,Compound,minimal effective dose [mg/kg]
1,CC(CNS(=O)(=O)c1ccc(Cl)cc1)c1ccc(NCC(=O)NCCC(=O)O)cc1 (stereo not shown) [Example 3],1
2,CC(CNS(=O)(=O)c1ccc(Cl)cc1)c1ccc(NCC(=O)NCCCC(=O)O)cc1 (stereo not shown) [Example 4],3
3,"O=C([O-])CNc1ccc(CCNS(=O)(=O)c2ccccc2)cc1.[Na+] [Known compound, Sodium N-[4-(2-benzenesulfonylaminoethyl)phenyl]glycinate, reference compound]",10
4,CC(Cc1ccc(NCC(=O)O)cc1)NS(=O)(=O)c1ccc(Cl)cc1 (stereo not shown) [Example 2],1
